Reference: US6767738B1, “Method of isolating adult mammalian CNS-derived progenitor stem cells using density gradient centrifugation” (The Salk Institute for Biological Studies, priority 1999, dated 2004)

Key:
[1] = tested on: low-buoyancy cortical cells; assay: Acquisition of neuron competence by low-buoyancy cortical cells in culture; type: cell-based, rat
From the text: (§1) Tissue dissection: Three areas were dissected from adult rat brains as follows. Rats (170-190 g Fisher 344 males or females, Harlan) were deeply anesthetized with a mixture of ketamine, xylazine, and acepromazine. Animals were decapitated and whole brains removed. First, ˜1.5 mm of each optic nerve were harvested rostral to, but not including, the optic chiasma. The brain was then bisected longitudinally and each hippocampal lobe separated from the overlaying cortical white matter using the natural separation line along the alveus hippocampus. The white matter of the fimbria and subiculum was removed as much as possible. Some white matter remained. Finally, a 1.5 mm wide cortical ribbon containing parietal and frontal segments was dissected longitudinally, proximal to the central fissure. The pial and callosal surfaces were trimmed from each cortical ribbon to remove a majority of the meninges and white matter.
Tissue dissociation and fractionation: Tissues were finely minced and digested in a solution of papain (2.5 U/ml, Worthington), DNAse (250 U/ml, Worthington), and neutral protease (1 U/ml Dispase, Boehringer) dissolved in Hanks balanced salt solution, as described in Palmer T D, Ray J, Gage F H (1995), FGF-2-Responsive Neuronal Progenitors Reside in Proliferative and Quiescent Regions of the Adult Rodent Brain. Mol Cell Neurosci 6:474-486; and Gage F H, Coates P W, Palmer T D, Kuhn H G, Fisher L J, Suhonen J O, Peterson D A, Suhr S T, Ray J (1995), Survival and differentiation of adult neuronal progenitor cells transplanted to the adult brain. Proc Natl Acad Sci USA 92:11879-11883. Cells and tissue fragments were washed 3 times with Dulbecco's Modified Eagles Medium (DMEM) containing 10% […] bovine serum (defined FBS, Hyclone). Whole digested tissue was then suspended in DMEM 10% FBS, filtered through a sterile 107 μm nylon mesh and thoroughly mixed with an equal volume of PERCOLL™ (polyvinylpyrrolidone-coated silica colloids) solution. The PERCOLL™ (polyvinylpyrrolidone-coated silica colloids) solution was made by mixing 9 parts of PERCOLL™ (polyvinylpyrrolidone-coated silica colloids) (Pharmacia) with 1 part 10X phosphate buffered saline (PBS, Irvine Scientific). The cell suspension was then fractionated by centrifugation for 30 minute, 18°C., at 20,000×g. […]
To determine how rapidly cortical cells acquired the competence to differentiate into neurons in culture, cells were isolated and cultured in growth medium for various times, allowed to differentiate in differentiation medium and then evaluated for the presence of neurons. […] Cultures were also treated with BrdU for the first 10 days and the newly generated neurons were evaluated for evidence of cell division. All neurons scored were labeled (>99%).

[2] = tested on: optic nerve low-buoyancy cells; assay: Neuron generation from optic nerve low-buoyancy cells; type: cell-based, rat; settings: 14 days high FGF-2, then 14 days differentiation; mean +/- s.e.m., n=5
From the text: as §1, with “matter. […]” for “matter.”
To determine if there were progenitors in the optic nerve with a latent ability to generate neurons, optic nerve was harvested, dissociated and fractioned. […] On day 28, cultures were calculated for the presence of neurons (β Tubulin) and those neurons present were scored for BrdU-immunoreactivity. Although many glia rapidly differentiated in the primary culture, clusters of proliferative precursor-like calls were readily detected. […]

FGF-2: basic fibroblast growth factor, human recombinant, prepared in E. coli
newly generated neurons labeled with BrdU ([1]; BrdU for the first 10 days): > 99% | neurons observed in cortical cultures ([1]; after three days in FGF-2): the occasional neuron was observed | cells that formed neurons when induced to differentiate ([1]; by 4 weeks in FGF-2 growth medium, 3 passages): roughly 10% | β Tubulin-positive neurons, of the total population [2]: 0.8% +/− 0.3
